# Like-named read-outs stand apart in the source and are kept apart here.
# Experiments:
# [1] = tested on: mouse foot pad inflammation induced by Freund's complete adjuvant (FCA); assay: Freund's complete adjuvant induced foot pad inflammation in mice (Example 1); assay type: in vivo
# Experimental: Mice were placed in the following administration groups, and administration occurred daily:
# 1) Control (no treatment) (n=4)
# 2) Placebo (PBS, i.p.) inoculation—(i.e. CFA only) (n=4)
# 3) H2 enriched PBS inoculation (i.e. CFA+H2) (n=4)
# 4) Lactulose inoculation at 0.5 mL/mouse (i.e. CFA+Lact) (n=4)
# 5) LYRICA® (i.e. CFA+Lyr) (n=5)
# 6) LYRICA®+H2 enriched PBS (i.e. CFA+Lyr+H2) (n=5)
# 7) LYRICA®+Lactulose in PBS (i.e. CFA+Lact+H2) (n=4)
# CFA was injected into the mice in groups 2 through 7 above. Inflammation was induced in the mice by injection of Freund's complete adjuvant (FCA), 25 μL/foot, on day 0 as shown in FIG. 1A. […] These measurements included thickness of foot pad (level of inflammation), amount of H2 in abdominal cavity, amount of nerve growth factor (NGF) (pain marker) in foot pad, amount of Substance P (pain marker) in foot pad, and amount of IL-1β in foot pad (level of inflammation).
# [2] = tested on: Freund's complete adjuvant-induced hind paw inflammation in mice; assay: Freund's complete adjuvant-induced hind paw inflammation in mice (Example 4); assay type: in vivo, mice (BALB/c); settings: day 7, versus mice without lactulose
# Experimental: The following experiment was performed to test the effects of Lactulose combined with Celecoxib or Ibuprofen on Freund's complete adjuvant-induced hind paw inflammation in mice, with the results shown in FIGS. 12-15.
# For induction of hindpaw inflammation, mice (BALB/c; 8 w old male n=6/group) received i.pl. injection of 25 μl of complete Freund's adjuvant (CFA, diluted 1:1 with PBS, 2 mg/ml; Mycobacterium tuberculosis; Difco Laboratories, Detroit, Mich.). Lactulose (10% water) or control water alone was administered once in a day for 7 days (500 μl/day) by oral gavage using a 20-G bulb-tipped gastric gavage needle (P.O.). Celecoxib (Toronto Research Chemicals) and Ibuprofen (Enzo Life Sciences) dissolved in PBS was applied to mice once a day via intra-peritoneal (i.p.) injection (10 mg/kg/day, respectively) for 7 days. The thickness of the foot pad was measured using a digital microcaliper as mice were sacrificed on 7 day. Surgically removed hind paw tissue was homogenized in EIA-Buffer (Cayman) and subjected to mouse NGF ELISA (Millipore), PGE2 EIA (Cayman), or TNF-α ELISA (R&D systems).
# [3] = H2 concentration in ascites fluid after ingestion (Example 2); assay type: in vivo, mouse; settings: for H2 concentration in ascites fluid after ingestion of sugar solution: mouse abdominal cavity, ranking among sugars tested
# Experimental: Lactose, glucose, galactose, fructose, mannitol, inulin, Splenda® (McNeil Nutritionals (sucralose)), Equal® (Merisant (aspartame, dextrose, and maltodextrin)), and lactulose were tested along with a control.
# After 30 minutes, H2-enriched water provided approximately 40 μM H2 concentration but dropped off to approximately 15 μM after 4 hours. At 4 hours, lactulose provided over 20 μM H2 concentration.
# [4] = tested on: tonic extensor seizures in mice; settings: cited from earlier work; for Effect # Protected/# Tested / Ataxia # Ataxia/# Tested: mice, intravenous, 120 min after dose; for Effect # Protected/# Tested: electroshock
# GAD = settings: cited from earlier work
# [5] = tested on: mouse macrophage cell line (RAW264.7); assay: TNF-α production from LPS-stimulated mouse macrophages (Example 3); assay type: cell-based; settings: LPS-stimulated RAW264.7, 24 hours, ELISA; drug 10-1000 nM, with or without H2
# Experimental: The following is an in vitro experiment to test the effects of hydrogen on the Celecoxib- or Ibuprofen-mediated anti-inflammatory activities, and the results are shown in FIGS. 10 and 11.
# The mouse macrophage cell line (RAW264.7) was seeded at a density of 1.0×10^5 cells/well in 96-well culture plates in Minimum Essential Medium Alpha ( ? -MEM, Sigma) supplemented with penicillin G solution (100 U/ml, GIBCO; Invitrogen, Buffalo, N.Y.), streptomycin ([…], GIBCO; Invitrogen), and gentamicin (50 ? g/ml, GIBCO; Invitrogen) containing 10% FBS in the presence or absence of H2 (300 nM/ml) for 30 min. Then the cells were exposed to LPS (0.1 mg/ml, Invivogen, San Diego, Calif.), with or without a variety of concentrations of Celecoxib or Ibuprofen (10-1000 nM). After culture of the RAW264.7 cells for 24 hours in a CO2 incubator (37° C.), the culture supernatant was harvested and subjected to TNF-α ELISA (R&D Systems).
compound,measurement,setting,value
"OC[C@H]1O[C@@H](O[C@@H]2[C@@H](CO)OC(O)(CO)[C@H]2O)[C@H](O)[C@@H](O)[C@H]1O (mixture of isomers) [Lactulose, lactulose]",H2 concentration in the abdomen,"[1]; day 8, CFA-injected mice",highest
same,foot pad swelling,"[2]; lactulose 10% P.O. 500 μl/day, drug 10 mg/kg/day i.p.",reduced
same,NGF in inflamed foot pads,[2],reduced
same,amount of PGE2 in inflamed foot pads,[2],reduced
same,amount of TNF-α in inflamed foot pads,[2],greatly reduced
same,H2 concentration in ascites fluid,[3]; after 4 hours,over 20 μM
same,H2 concentration in ascites fluid after ingestion of sugar solution,[3],highest concentration of H2 in ascites fluid
"CC(CN)CC(=O)O (racemic) [(R,S)—CH3]",Effect # Protected/# Tested,[4]; 10 mg/kg,0/5
same,Ataxia # Ataxia/# Tested,[4]; 10 mg/kg,0/5
same,Effect # Protected/# Tested,[4]; 30 mg/kg,4/5
same,Ataxia # Ataxia/# Tested,[4]; 30 mg/kg,0/5
same,Effect # Protected/# Tested,[4]; 100 mg/kg,3/5
same,Ataxia # Ataxia/# Tested,[4]; 100 mg/kg,0/5
"CC(C)CC(CN)CC(=O)O (racemic) [(R,S)—i-C4H9, H, 4-amino-3-(2-methylpropyl)butanoic acid]",activating GAD in vitro,GAD; compared with the other analogs tested,least effective one of the analogs tested
same,potency when tested in vivo,[4]; compared with the other analogs,more potent than the other analogs
"CC(N)CCC(=O)O (racemic) [H(R,S)]",Activation of GAD by GABA analogs expressed in %,GAD; 0.25 mM,104%
same,Activation of GAD by GABA analogs expressed in %,GAD; 1.0 mM,111%
same,Activation of GAD by GABA analogs expressed in %,GAD; 2.5 mM,140%
"CC(C)Cc1ccc(C(C)C(=O)O)cc1 (racemic) [ibuprofen, (RS)-2-(4-(2-methylpropyl)phenyl)propanoic acid]",TNF-α production,[5],TNF-α suppression
CC(C)(CN)CC(=O)O [(CH3)2],Effect # Protected/# Tested,[4]; 30 mg/kg,4/5
same,Ataxia # Ataxia/# Tested,[4]; 30 mg/kg,0/5
same,Effect # Protected/# Tested,[4]; 100 mg/kg,4/5
same,Ataxia # Ataxia/# Tested,[4]; 100 mg/kg,0/5
"NCC1(CC(=O)O)CCCCC1 [GABAPENTIN, gabapentin]",Activation of GAD by GABA analogs expressed in %,GAD; 0.25 mM,105%
same,Activation of GAD by GABA analogs expressed in %,GAD; 1.0 mM,145%
same,Activation of GAD by GABA analogs expressed in %,GAD; 2.5 mM,178%
C[C@@H](N)CCC(=O)O [H(R)],Activation of GAD by GABA analogs expressed in %,GAD; 0.25 mM,108%
same,Activation of GAD by GABA analogs expressed in %,GAD; 1.0 mM,125%
same,Activation of GAD by GABA analogs expressed in %,GAD; 2.5 mM,173%
C[C@H](N)CCC(=O)O [H(S)],Activation of GAD by GABA analogs expressed in %,GAD; 0.25 mM,100%
same,Activation of GAD by GABA analogs expressed in %,GAD; 1.0 mM,100%
same,Activation of GAD by GABA analogs expressed in %,GAD; 2.5 mM,100%
"CC(C)C[C@H](CN)CC(=O)O [LYRICA®, (S)-(+)-4-amino-3-(2-methylpropyl)butanoic acid]",IL-1β in tissue (level of inflammation),[1]; CFA-injected mice,slightly reduced levels of inflammation compared to placebo group 2
same,Substance P (pain marker) in tissue,[1]; CFA-injected mice,reduction in the marker compared to the placebo group 2
CCCC(CCC)C(=O)[O-].[Na+] [Sodium Valproate],Activation of GAD by GABA analogs expressed in %,GAD; 0.05 mM,105%
same,Activation of GAD by GABA analogs expressed in %,GAD; 0.1 mM,115%
same,Activation of GAD by GABA analogs expressed in %,GAD; 0.25 mM,119%
same,Activation of GAD by glutamate analogs expressed in %,GAD; 0.25 mM,119%
same,Activation of GAD by GABA analogs expressed in %,GAD; 0.5 mM,124%
same,Activation of GAD by GABA analogs expressed in %,GAD; 1.0 mM,138%
same,Activation of GAD by glutamate analogs expressed in %,GAD; 1.0 mM,138%
same,Activation of GAD by GABA analogs expressed in %,GAD; 2.5 mM,207%
same,Activation of GAD by glutamate analogs expressed in %,GAD; 2.5 mM,207%
"CC(C)CC(CN)CC(=O)O (stereo not drawn) [i-C4H9, 4-amino-3-(2-methylpropyl)butanoic acid]",Effect # Protected/# Tested,[4]; 0.3 mg/kg,1/10
same,Effect # Protected/# Tested,[4]; 0.8 mg/kg,3/10
same,Effect # Protected/# Tested,[4]; 2.0 mg/kg,5/10
same,Effect # Protected/# Tested,[4]; 5.5 mg/kg,7/10
CC(C)(C)CC(CN)CC(=O)O (stereo not drawn) [neo-C5H11],Effect # Protected/# Tested,[4]; 10 mg/kg,2/10
same,Ataxia # Ataxia/# Tested,[4]; 10 mg/kg,0/10
same,Effect # Protected/# Tested,[4]; 30 mg/kg,4/10
same,Ataxia # Ataxia/# Tested,[4]; 30 mg/kg,0/10
same,Effect # Protected/# Tested,[4]; 100 mg/kg,4/10
same,Ataxia # Ataxia/# Tested,[4]; 100 mg/kg,0/10
CCC(C)C(CN)CC(=O)O (stereo not drawn) [s-C4H9],Effect # Protected/# Tested,[4]; 3 mg/kg,2/10
same,Ataxia # Ataxia/# Tested,[4]; 3 mg/kg,0/10
same,Effect # Protected/# Tested,[4]; 10 mg/kg,3/10
same,Ataxia # Ataxia/# Tested,[4]; 10 mg/kg,0/10
same,Effect # Protected/# Tested,[4]; 30 mg/kg,2/10
same,Ataxia # Ataxia/# Tested,[4]; 30 mg/kg,0/10
CC(C)(C)C(CN)CC(=O)O (stereo not drawn) [t-C4H9],Effect # Protected/# Tested,[4]; 10 mg/kg,2/10
same,Ataxia # Ataxia/# Tested,[4]; 10 mg/kg,0/10
same,Effect # Protected/# Tested,[4]; 30 mg/kg,2/10
same,Ataxia # Ataxia/# Tested,[4]; 30 mg/kg,0/10
same,Effect # Protected/# Tested,[4]; 100 mg/kg,5/10
same,Ataxia # Ataxia/# Tested,[4]; 100 mg/kg,0/10
inulin,H2 concentration in ascites fluid after ingestion of sugar solution,[3],next highest concentration

# — patent publication US9925204B2, “Anti-inflammatory compounds in combination with hydrogen for the treatment of inflammation” (priority 2012, dated 2018)
